# Laboratory results from ChEMBL document CHEMBL4304772, “Synthesis, in vitro biological evaluation and in silico studies of certain arylnicotinic acids conjugated with aryl (thio)semicarbazides as a novel class of anti-leishmanial agents” (Eur J Med Chem, 2019).
# The source made the active and inactive calls. No cut-off for these calls is given here.
# Assays:
# [1] = system: Leishmania major; experiment: Reversible inhibition of DHFR-TS/PTR1 in Leishmania major promastigote form in presence of excess folic acid
# [2] = system: Leishmania major; experiment: Antileishmanial activity against Leishmania major promastigotes measured after 24 hrs by alamar blue staining based fluorescence assay; type: functional, organism-based
# [3] = system: Leishmania major; conditions: 100 uM
# Description: Inhibition of DHFR-TS/PTR1 in Leishmania major promastigote form assessed as parasite survival at 100 uM measured after 48 hrs in presence of 100 uM folic acid relative to control
# [4] = system: Leishmania major; conditions: 100 uM; remark: listed apart in the source
# Description: Inhibition of DHFR-TS/PTR1 in Leishmania major promastigote form assessed as parasite survival at 100 uM measured after 48 hrs relative to control
# [5] = Selectivity index, ratio of CC50 for African green monkey Vero cells to IC50 for leishmania major promastigote; type: toxicity; conditions: read-out: Ratio CC50/IC50
# [6] = system: Leishmania major; experiment: Antileishmanial activity against Leishmania major promastigote form assessed as parasite survival at 5.9 uM measured after 48 hrs in presence of 100 uM folinic acid relative to control; type: functional
# [7] = system: Leishmania major; experiment: Inhibition of DHFR-TS/PTR1 in Leishmania major promastigote form assessed as parasite survival at 5.9 uM measured after 48 hrs in presence of 100 uM folic acid relative to control
# [8] = system: Leishmania major; experiment: Potency index, ratio of miltefosine IC50 for Leishmania major amastigote form to compound IC50 for Leishmania major amastigote form; type: functional
# [9] = system: Leishmania major; experiment: Inhibition of DHFR-TS/PTR1 in Leishmania major promastigote form assessed as parasite survival at 5.9 uM measured after 48 hrs in presence of 20 uM folic acid relative to control
# [10] = system: Leishmania major; experiment: Antileishmanial activity against Leishmania major promastigote form assessed as parasite survival at 5.9 uM measured after 48 hrs in presence of 20 uM folinic acid relative to control; type: functional
# [11] = Cytotoxicity against African green monkey Vero cells after 72 hrs by crystal violet staining based assay; type: cell-based; conditions: chlorocebus sabaeus
# [12] = system: Leishmania major; experiment: Antileishmanial activity against Leishmania major amastigotes measured after 72 hrs by resazurin dye based fluorescence assay; type: functional, organism-based
# [13] = system: Leishmania major; experiment: Inhibition of DHFR-TS/PTR1 in Leishmania major promastigote form assessed as parasite survival at 5.9 uM measured after 48 hrs relative to control
# [14] = system: Leishmania major; experiment: Antileishmanial activity against Leishmania major promastigote form assessed as parasite survival at 4.5 uM measured after 48 hrs in presence of 100 uM of folinic acid relative to control; type: functional
# [15] = system: Leishmania major; experiment: Inhibition of DHFR-TS/PTR1 in Leishmania major promastigote form assessed as parasite survival at 4.5 uM measured after 48 hrs in presence of 20 uM folic acid relative to control
# [16] = system: Leishmania major; experiment: Inhibition of DHFR-TS/PTR1 in Leishmania major promastigote form assessed as parasite survival at 4.5 uM measured after 48 hrs relative to control
# [17] = system: Leishmania major; experiment: Inhibition of DHFR-TS/PTR1 in Leishmania major promastigote form assessed as parasite survival at 4.5 uM measured after 48 hrs in presence of 100 uM of folic acid relative to control
# [18] = system: Leishmania major; experiment: Antileishmanial activity against Leishmania major promastigote form assessed as parasite survival at 4.5 uM measured after 48 hrs in presence of 20 uM of folinic acid relative to control; type: functional
SMILES,reversible inhibition (active/inactive) [1],IC50 [2] [µM],also measured
COc1ccc(NC(=O)NNC(=O)c2ccc(-c3cc(OC)c(OC)c(OC)c3)nc2C)cc1,Active,22.5,
COc1cc(Cc2cnc(N)nc2N)cc(OC)c1OC,Active,,Survival [3]: 99%; Survival [4]: 69%
COc1cc(-c2ccc(C(=O)NNC(=S)Nc3ccccc3)c(C)n2)cc(OC)c1OC,Active,5.7,selectivity ratio [5]: 90.1; Survival [6]: 88%; Survival [7]: 84%; Ratio IC50 [8]: 1.2 - 2.2; Survival [9]: 72%; Survival [10]: 75%; CC50 at 72 h [11]: 513 µM; IC50 [12]: 4.2 µM; Survival [13]: 25%
COc1ccc(-c2ccc(C(=O)NNC(=S)Nc3ccc(C)cc3)c(C)n2)cc1OC,Active,10.2,
COc1ccc(NC(=O)NNC(=O)c2ccc(-c3ccc(OC)cc3)nc2C)cc1,Active,20,
CCCCCCCCCCCCCCCCOP(=O)([O-])OCC[N+](C)(C)C [MILTEFOSINE],,7.6,IC50 [12]: 7.3 µM
COc1cc(-c2ccc(C(=O)NNC(=S)Nc3ccc(Cl)cc3)c(C)n2)cc(OC)c1OC,Active,4.3,selectivity ratio [5]: 122; Survival [14]: 93%; Survival [15]: 78%; Ratio IC50 [8]: 1.2 - 2.2; Survival [16]: 23%; Survival [17]: 87%; Survival [18]: 81%; CC50 at 72 h [11]: 523 µM; IC50 [12]: 3.3 µM
COc1ccc(NC(=S)NNC(=O)c2ccc(-c3ccc(OC)c(OC)c3)nc2C)cc1,Active,6.4,selectivity ratio [5]: 98.8; Ratio IC50 [8]: 1.2 - 2.2; CC50 at 72 h [11]: 632 µM; IC50 [12]: 4.8 µM
COc1cc(-c2ccc(C(=O)NNC(=O)Nc3ccccc3)c(C)n2)cc(OC)c1OC,Active,19.8,
COc1ccc(-c2ccc(C(=O)NNC(=S)Nc3ccccc3)c(C)n2)cc1,Active,12,
COc1ccc(-c2ccc(C(=O)NNC(=O)Nc3ccc(Cl)cc3)c(C)n2)cc1OC,Active,18.8,
COc1ccc(-c2ccc(C(=O)NNC(=O)Nc3ccccc3)c(C)n2)cc1OC,Active,16.7,
COc1ccc(-c2ccc(C(=O)NNC(=O)Nc3ccccc3)c(C)n2)cc1,Active,18.6,
COc1ccc(NC(=S)NNC(=O)c2ccc(-c3ccc(OC)cc3)nc2C)cc1,Active,11.4,
COc1ccc(-c2ccc(C(=O)NNC(=S)Nc3ccccc3)c(C)n2)cc1OC,Active,9.2,
COc1ccc(NC(=S)NNC(=O)c2ccc(-c3cc(OC)c(OC)c(OC)c3)nc2C)cc1,Active,5.8,selectivity ratio [5]: 87.2; Ratio IC50 [8]: 1.2 - 2.2; CC50 at 72 h [11]: 506 µM; IC50 [12]: 5.9 µM
COc1ccc(NC(=O)NNC(=O)c2ccc(-c3ccc(OC)c(OC)c3)nc2C)cc1,Active,19.7,
COc1ccc(-c2ccc(C(=O)NNC(=S)Nc3ccc(Cl)cc3)c(C)n2)cc1,Active,16.7,
COc1ccc(-c2ccc(C(=O)NNC(=S)Nc3ccc(Cl)cc3)c(C)n2)cc1OC,Active,17.4,
COc1ccc(-c2ccc(C(=O)NNC(=S)Nc3ccc(C)cc3)c(C)n2)cc1,Active,10.7,Ratio IC50 [8]: 1.2 - 2.2
COc1cc(-c2ccc(C(=O)NNC(=O)Nc3ccc(Cl)cc3)c(C)n2)cc(OC)c1OC,Active,23.9,
COc1cc(-c2ccc(C(=O)NNC(=S)Nc3ccc(C)cc3)c(C)n2)cc(OC)c1OC,Active,6.1,selectivity ratio [5]: 94.2; Ratio IC50 [8]: 1.2 - 2.2; CC50 at 72 h [11]: 574 µM; IC50 [12]: 5.8 µM
COc1ccc(-c2ccc(C(=O)NNC(=O)Nc3ccc(Cl)cc3)c(C)n2)cc1,Active,21.9,
